Entries after “also recorded” stand apart in the source; their conditions may differ.

For assay [1], the system named is phosphorylation of AKT on S473 in U87MG tumors. In words: In vivo target modulation study, U87MG tumors. To be noted: for p-Akt/Akt(%): 1 h post last dose. The arrangement: species or system mouse. As to the method: In vivo target modulation studies to determine the effect of Compound 152 treatment on the phosphorylation of AKT on S473 by ELISA and S6 on S235/S236 by IHC were performed. Resected tumors were frozen on dry ice and pulverized using the FAST PREP instrument (Qbiogene). Briefly, frozen tumors were placed in Fast Prep matrix tubes, cold lysis buffer [20 mM HEPES (pH 7.5), 150 mM NaCl, 1.0 mM sodium EDTA, 1% Triton X-100, 2.5 mM sodium pyrophosphate, 1 mM sodium orthovanadate, 1 μg/ml leupeptin, and 1 mM PMSF] was added and samples were centrifuged for 5 sec, mixed and process repeated two more times. Samples were centrifuged in a cold refrigerated Eppendorf centrifuge at 14,000 RPM for 20 min. Supernatant was collected and total and phosphoAKT (S473) protein levels determined by ELISA. The extent of phosphorylation in tumors resected from treated animals was compared with that in tumors resected from vehicle-treated animals at the same time point. Plasma samples, obtained by centrifuging individual blood samples at 3000×g for 5 min at 4° C. in an Eppendorf 5417R centrifuge, were stored at −80° C. until they could be analyzed for drug concentration. Briefly, plasma samples (50 μl) or Compound 152 standards in mouse plasma were mixed with acetonitrile […]) and injected onto a LC/MS/MS system where separation occurred on a C-18 SB phenyl (5 μM, 2.1×50 mm, Agilent) reverse-phase high-performance liquid chromatography column. The amount of inhibitor and the internal standard (0.5 μM buspirone) in each mouse plasma sample was quantified based on standard curves generated using known amounts of compound. […] Time course and dose response of in vivo target modulation and plasma inhibitor concentrations were determined post last dose at the end of the efficacy study described above and data are summarized in Table 4.

Another assay concerns SKOV3 tumor model. In words: Mouse xenograft efficacy study, SKOV3. To be noted: for Growth Inhibition (%): SKOV3 ovarian xenograft. Format: in vivo. As to the method:
The in vivo efficacy of 2-amino-8-(trans-4-hydroxycyclohexyl)-6-(6-methoxypyridin-3-yl)-4-methylpyrido[2,3-d]pyrimidin-7(8H)-one (Compound 152) disclosed in Example 53 was examined in s.c. xenograft model. Human tumor cell lines PC3 (PTEN deletion)), U87MG (PTEN deletion) and SKOV3 (PI3Kα […]) were chosen for in vivo efficacy studies due to their different genetic background and relatively high levels of phospho AKT S473 signal. Cells were implanted in the hind flank of athymic mice and tumors grew in size to 100-200 mm^3 before daily oral treatment with Compound 152 was initiated. […] For all models tested 1 mg/kg was an efficacious dose.
Animal Care: Female and male athymic mice (6-8 weeks old) weighing ˜22 g were obtained from Charles River Laboratory. Animal were housed on a 12 h light/dark cycle in the Pfizer vivarium and all procedures are conducted in accordance with the Pfizer Institutional Animal Care and Use Committee (IACUC). Animals are provided free access to rodent chow and water ad libitum and maintained under clean room conditions. Prior to study start animals acclimate for at least 48 h.
Cell lines: All cell lines were cultured at 37° C. in humidified 5% CO2 incubator. U87 MG glioblastoma tumor cell line was obtained from American Type Culture Collection (ATCC) and cultured with DMEM supplemented with 15% FBS and 2 mM glutamine. PC3 prostate cancer cell line were obtained from National Cancer Institute and cultured in RPMI media supplemented with 10% FBS and 2 mM glutamine. SKOV3 ovarian cancer cells were obtained from ATCC and passaged multiple times through mice, and cultured in McCoy's 5A media supplemented with 10% FBS and 2 mM glutamine. All cell lines were tested by University of Missouri Research Animal Diagnostic Laboratory for known species of murine viruses and mycoplasma contamination.
Mouse Xenograft Models: U87MG (glioblastoma), PC3 (prostate cancer) and SKOV3 (ovarian cancer) cell lines in culture were harvested by trypsinisation. Briefly, 2.5−4×10^6 tumor cells were suspended in the medium used to culture each cell line without serum and implanted sub-cutaneously (s.c) into the hind flank region of mice on day 0. Daily treatment with Compound 152, formulated in 10% ethanol, 40% PEG and 50% sodium citrate buffer or vehicle alone commenced 10-14 d after implantation when average tumors were 100-200 mm^3 in size. Tumors were measured twice weekly and tumor volume was calculated as a product of (length×width^2)/2. Studies were typically terminated when the tumor in the vehicle treated animals reached a size of >1500 mm3 or when judged to adversely affect the well being of the animal. […] Where applicable, percent tumor regression for each group was calculated as 100×(tumor volumeinitial−tumor volumefinal)/(tumor volumeinitial). A cohort of 12 animals was used for each dose group for efficacy studies. A representative cohort of animals were sacrificed at the times indicated, tumors resected, and a blood sample taken from the cardiac left ventricle and immediately placed in a vial primed with heparin sulfate. Typically one half of the tumor was fixed in 10% neutral buffered formalin, paraffin embedded, and sectioned for immunohistochemistry. The other half was frozen in liquid nitrogen and later processed to generate cell lysates for target modulation studies.

The mark [2] stands for this setting: SKOV3 tumor model, daily oral treatment.

As to `COc1ccc(-c2cc3c(C)nc(N)nc3n([C@H]3CC[C@H](O)CC3)c2=O)cn1` [Compound 152, 2-amino-8-(trans-4-hydroxycyclohexyl)-6-(6-methoxypyridin-3-yl)-4-methylpyrido[2,3-d]pyrimidin-7(8H)-one], the EC50 in assay [1] (Mus musculus, U-87 MG, read-out: EC50 plasma concentration for pAKT S473 target modulation) is 24 nM. Moreover, the “p-Akt/Akt(%)” value in assay [1] (U87, 0.1 mg/kg) was determined as 44%; in assay [1] (U87, 0.3 mg/kg) it was 27%; in assay [1] (U87, 1 mg/kg), 11%. The “inhibition of pAKT at S473” value in assay [1] (U87MG tumors in vivo) is listed as “dose dependent inhibition”. The “Growth Inhibition (%)” value in the assay with SKOV3 tumor model (0.5 mg/kg/day oral) was 46%; with SKOV3 tumor model (1 mg/kg/day oral), 66%; in the assay on SKOV3 tumor model (2 mg/kg/day oral) it was 82%. Besides, the anti-tumor efficacy result in the assay with SKOV3 tumor model (setting [2]) is “dose-dependent anti-tumor efficacy; also recorded: growth inhibition”. In the assay on SKOV3 tumor model (setting [2]), the efficacious dose came out at 1 mg/kg.

These data come from patent publication US8633204B2 (Pfizer Inc., priority 2006, dated 2014).
